Results from patent US20140357487A1, “PLANTS HAVING INCREASED TOLERANCE TO HERBICIDES” (BASF SE, priority 2011, published 2014).

How the values were obtained:
Picrophilus HPPD = assay: HPPD activity assay, Picrophilus HPPD; type: biochemical; conditions: normalized on Arabidopsis wild-type HPPD
Procedure: (§1) HPPD produces homogentisic acid and CO2 from 4-hydroxyphenylpyruvate (4-HPP) and O2. The activity assay for HPPD is based on the analysis of homogentisic acid by reversed phase HPLC.
(§2) The assay mixture can contain 150 mM potassium phosphate buffer pH 7.0, 50 mM L-ascorbic acid, 1 μM FeSO4 and 7 μg of purified enzyme in a total volume of 1 ml.
(§3) Inhibitors are dissolved in DMSO (dimethylsulfoxide) to a concentration of 20 mM or 0.5 mM, respectively. From this stock solution serial five-fold dilutions are prepared in DMSO, which are used in the assay. The respective inhibitor solution accounts for 1% of the assay volume. Thus, final inhibitor concentrations range from 200 μM to 2.5 nM or from 5 μM to 63 pM, respectively. After a preincubation of 30 min the reaction is started by adding 4-HPP to a final concentration of 0.1 mM. The reaction is allowed to proceed for 120 min at room temperature. The reaction is stopped by addition of 100 μl of 4.5 M phosphoric acid.
(§4) Activities are normalized by setting the uninhibited enzyme activity to 100%. IC50 values are calculated using non-linear regression.
(§5) The assay mixture can contain 150 mM potassium phosphate buffer pH 7.0, 50 mM L-ascorbic acid, 100 μM Catalase (Sigma-Aldrich), 1 μM FeSO4 and 0.2 units of purified HPPD enzyme in a total volume of 505 μl. […]
(§6) Inhibitors are dissolved in DMSO (dimethylsulfoxide) to a concentration of 0.5 mM. […] IC50 values are calculated using non-linear regression.
(§7) Using methods which are described in the above examples or well known in the art, purified, recombinant wildtype HPPD enzymes are characterized with respect to their kinetic properties and sensitivity towards HPPD inhibiting herbicides. Apparent michaelis constants (Km) and maximal reaction velocities (Vmax) are calculated by non-linear regression with the software GraphPad Prism 5 (GraphPad Software, La Jolla, USA) using a substrate inhibition model. […] Weighted means (by standard error) of Km and […] values are calculated from at least three independent experiments. […]

Poa HPPD = assay: HPPD activity assay, Poa HPPD; type: biochemical; conditions: normalized on Arabidopsis wild-type HPPD
Procedure: as §1, §2, §3, §4, §5, §6, §7

Sorghum HPPD = assay: HPPD activity assay, Sorghum HPPD; type: biochemical; conditions: normalized on Arabidopsis wild-type HPPD
Procedure: as §1, §2, §3, §4, §5, §6, §7

[1] = test system: transgenic Arabidopsis plants overexpressing Barley HPPD (Seq ID: 2); assay: Arabidopsis growth inhibition in 48-well plates, line overexpressing Barley HPPD; type: in vivo, Arabidopsis thaliana; conditions: Barley (Seq ID: 2) overexpression line; plant growth IC50 of transgenic divided by that of wildtype plants
Text: Various methods for the production of stably transformed plants are well known in the art. Coumarone-derivative herbicide tolerant soybean (Glycine max) or corn (Zea mays) plants can be produced by a method described by Olhoft et al. (US patent 2009/0049567). Briefly, HPPD or HST encoding polynucleotides are cloned into a binary vector using standard cloning techniques as described by Sambrook et al. (Molecular cloning (2001) Cold Spring Harbor Laboratory Press). The final vector construct contains an HPPD or HST encoding sequence flanked by a promoter sequence (e.g. the ubiquitin promoter (PcUbi) sequence) and a terminator sequence (e.g. the nopaline synthase terminator (NOS) sequence) and a resistance marker gene cassette (e.g. AHAS) (FIG. 2). Optionally, the HPPD or HST gene can provide the means of selection. Agrobacterium-mediated transformation is used to introduce the DNA into soybean's axillary meristem cells at the primary node of seedling explants. After inoculation and co-cultivation with Agrobacteria, the explants are transferred to shoot induction medium without selection for one week. […]
Depending on the species, the plants are kept at 10-25° C. or 20-35° C. […] During this time, the plants are tended and their response to the individual treatments is evaluated. […] Tolerance to coumarone-derivative herbicides can also be assessed in Arabidopsis. […]

| SMILES | Normalized tolerance index TI (Picrophilus HPPD) | Normalized tolerance index TI (Poa HPPD) | Normalized tolerance index TI (Sorghum HPPD) | Tolerance factor [1] |
| --- | --- | --- | --- | --- |
| CC1=NOC(c2c(Cl)ccc(C3=C(O)c4ncccc4C(C)(C)S3(=O)=O)c2Cl)C1 (stereo not drawn) [Inhibitor 1, 7-[2,4-dichloro-3-(3-methyl-4,5-dihydroisoxazol-5-yl)phenyl]-5,5-dimethyl-6,6-dioxo-thiopyrano[4,3-b]pyridin-8-ol] | 283 | 2.1 | 2.1 | 10 |
| CC1(C)c2cccnc2C(O)=C(c2ccc(Cl)nc2Cl)S1(=O)=O [Inhibitor 2, 7-(2,6-dichloro-3-pyridyl)-5,5-dimethyl-6,6-dioxo-thiopyrano[4,3-b]pyridin-8-ol] | 86.4 | 1.1 | 1.2 | 3 |
| COCCOCc1c(Cl)ccc(C2=C(O)c3ncccc3C(C)(C)S2(=O)=O)c1Cl [Inhibitor 3, 7-[2,4-dichloro-3-(2-methoxyethoxymethyl)phenyl]-5,5-dimethyl-6,6-dioxo-thiopyrano[4,3-b]pyridin-8-ol] | 17.2 |  |  |  |
